Assay [1] has as its system Rattus norvegicus. Nature of the assay: Effect on urinary excretion of prostaglandin in adenine rich diet fed LWH:Wistar rat assessed as urine prostaglandin E2 level per 24 hrs at […], ip administered from day 7 to day 12 of adenine ingestion. It is filed as functional.
The test system of assay [2] is Rattus norvegicus. Description: Effect on urinary excretion of prostaglandin in adenine rich diet fed LWH:Wistar rat assessed as urine 6-keto-PGF1-alpha level per 24 hrs at […], ip administered from day 7 to day 12 of adenine ingestion. In kind it is functional.
Assay [3] has as its system Rattus norvegicus. Nature of the assay: Effect on urinary excretion of prostaglandin in adenine rich diet fed LWH:Wistar rat assessed as urine TXB2 level per 24 hrs at […], ip administered from day 7 to day 12 of adenine ingestion. In kind it is functional.
Assay [4] relates to Rattus norvegicus. Nature of the assay: Decrease in urinary excretion of thromboxane B2 in adenine rich diet fed LWH:Wistar rat at […], ip administered from day 7 to day 12 of adenine ingestion. Details: scale not given: the % may be the effect or the level left. It is filed as functional, Urine.
In assay [5] the test system is Rattus norvegicus. Description: Protection against renal failure in adenine rich diet fed LWH:Wistar rat up to […], ip administered once daily from day 7 to day 12 of adenine ingestion. It is filed as functional, organism-based.
In assay [6] the test system is Rattus norvegicus. Nature of the assay: Increase in urinary excretion of prostaglandin E2 in adenine rich diet fed LWH:Wistar rat at […], ip administered from day 7 to day 12 of adenine ingestion. It is filed as functional, organism-based. Particulars: Urine.

Calls of active or inactive are those of the source. The calls are words filed in the database; no cut-off is given here.

With `O=C(/C=C/c1ccc(O)c2c1[C@H](C(=O)O[C@H](Cc1ccc(O)c(O)c1)C(=O)[O-])[C@@H](c1ccc(O)c(O)c1)O2)O[C@H](Cc1ccc(O)c(O)c1)C(=O)[O-].[Mg+2]` [MAGNESIUM LITHOSPERMATE B], the Activity was 72.5 ng in the assay on Rattus norvegicus [1], 20.7 ng with Rattus norvegicus [2], 23.3 ng in the assay on Rattus norvegicus [3] and 36% in the assay with Rattus norvegicus [4]. Also, the result in the assay on Rattus norvegicus [5] and in the assay with Rattus norvegicus [6] was Active.

(Values after ChEMBL document CHEMBL1151155, “Effect of magnesium lithospermate B on urinary prostaglandins in rats with renal failure” (1990).)
